{"source": "patent US10500167B2", "about": "“Droplet-embedded microfibers, and methods and devices for preparing and using same” (TRUSTEES OF PRINCETON UNIVERSITY, priority 2014, dated 2019)", "key": {"[1]": {"experiment": "retention and selective release of cargo from alginate-in-oil-in-alginate fibers", "type": "physicochemical", "text": "The concentration of alginate-PVA solution in the inner alginate compartment was kept the same as the alginate fiber. As for the cargos, 0.5% (v/v) 200 nm orange fluorescent particles (FluoSpheres, Invitrogen), 1% (w/v) FITC conjugated BSA, or 0.04% (v/v) of 190 nm Dragon Green fluorescent particles (Uniform Dyed Microspheres, Bangs Laboratories, Inc.) were mixed with the alginate solution. For water-based magnetic particles, 2% (v/v) of 1 μm-magnetic polystyrene particles were mixed in the alginate solution. Chemicals not indicated with vendors were purchased from Sigma-Aldrich.\nMulticompartment fibers were collected as suspensions in DI water or wound between two rotating needles controlled by a motor (Barnant Motor Mixer, Model No. 700-5412). […] For selective dissolution of the cargos from the oil compartment of the fibers, ethanol (Reagent alcohol, BDH) was added to the fiber suspensions. The de-cross-linking agent, 160 mM sodium citrate (Na3C6H5O7, Sigma-Aldrich) in DI water was used as calcium chelator to degrade the alginate fiber or inner alginate particles.\nAs a model particle cargo, 200 nm fluorescent nanoparticles were added to the inner alginate particle to produce fluorescent core microfibers (FIG. 2, panel a, and FIG. 8, panel a).\nAs a non-limiting example, ethanol was used to affect oil phase removal. The oil phase, which was a solution of mineral oil, 5% (v/v) undecanol, and 2 wt % Span 80 surfactant, was slightly miscible with ethanol, and thus was able to slowly escape the oil microcompartments in the fiber in the presence of ethanol. Alginate-in-oil-in-alginate fibers were prepared with 0.3 mg·mL^−1 of a lipophilic fluorescent dye, Nile Red, in the oil droplets, and green fluorescent nanoparticles of 190 nm diameter in the inner alginate particles; one fiber sample was immersed in water, and the second fiber sample was immersed in an ethanol/water solution."}, "[2]": {"experiment": "retention and release of dissolved compounds from hydrophobic PEG-DA droplet-in-fibers", "type": "physicochemical", "text": "FIG. 18 illustrates hydrophobic droplet-in-fibers wrapped around needles immersed in water. On the left, the fiber precursor solution contained 76 vol % PEG250DA, 20 vol % PEG700DA and 4 vol % photoinitiator. On the right, the fiber precursor solution contained 96 vol % PEG250DA and 4 vol % photoinitiator. Both fibers contained aqueous droplets with 1 wt % erioglaucine (blue dye)."}, "[3]": {"test_system": "Escherichia coli (E. Coli, S17-1λpir)", "experiment": "antibacterial effect of eugenol oil droplets on E. coli cells encapsulated in alginate fibers", "type": "cell-based", "description": "For the alginate fiber, 0.5-1 wt % sodium alginate (from brown algae) with 0.1-0.25 wt % poly(vinyl alcohol) (PVA; Molecular weight, 31,000-50,000) dissolved in DI water or PBS was used. PVA is a biocompatible polymer. Also, after collecting the fibers, they were rinsed with DI water or PBS, and stored in DI water to allow any water-soluble components in the fiber to be removed. […] For cell encapsulation, the alginate-PVA solution was filtered through 0.22 μm pore-sized filter prior to mixing with cells. The mammalian cells, NIH/3T3 mouse fibroblast cells (ATCC), were cultured in Dulbecco's modified Eagle medium (DMEM; ATCC) supplemented with 10% (v/v) calf bovine serum and 1% (v/v) penicillin. The cells were prepared to be 1-2×10^5 cells·mL^−1 in the final alginate solution. For encapsulating mammalian cells in the alginate fiber, a solution of 0.5 wt % alginate with 0.1 wt % PVA dissolved in PBS was used. The bacterial cells were Escherichia coli (E. Coli, S17-1λpir) that express green fluorescent protein (GFP) from a plasmid, induced by isopropyl β-D-1-thiogalactopyranoside (IPTG). More details on the cells, including plasmid construction, is recited in Drescher, et al., 2014, Curr. Biol. 24:50. The E. coli cells were prepared in the alginate solution to be 4-5×10^6 cells·mL^−1. For encapsulating bacterial cells, a solution of 1 wt % alginate with 0.25 wt % PVA dissolved in PBS was used.\n(§1) For the oil droplet compartment, mineral oil with 2 wt % Span 80 was used in general. For solidifying inner alginate droplets to prevent them from escaping the oil compartment, 5% (v/v) of calcium chloride-saturated undecanol was mixed with the oil solution. The concentrations of the cargos to be carried in the oil compartment were 0.3 mg·mL^−1 for Nile red, 0.8% (v/v) for magnetic particles in oil-phase (EMG 909, FerroTec), and 10 and 20% (v/v) for eugenol. […] The final concentration of undecanol in the oil solution was 5% (v/v). In the case of using just eugenol for the oil compartment, 2 wt % Span 80 was added to eugenol to form stable droplets.\nMulticompartment fibers were collected as suspensions in DI water or wound between two rotating needles controlled by a motor (Barnant Motor Mixer, Model No. 700-5412). Fibers encapsulating the fibroblast cells were collected in DMEM supplemented with 10% calf bovine serum and 1% penicillin, and stored in the 5% CO2-humidified incubator at 37° C. To test the cell viability inside the multicompartment fibers, 2 μM of calcein AM and 4 μM of ethidium-homodimer-1 (EthD-1) from LIVE/DEAD Viability/Cytotoxicity kit for mammalian cells (Molecular Probes) were applied in the DMEM 1 hour prior to the observation under a fluorescent microscope. The cell viability was analyzed with the green (calcein AM) and red (EthD-1) fluorescence images using image analysis software, ImageJ (NIH). E. coli-encapsulated fibers were either collected in LB media containing 1 mM IPTG and 100 μg·mL^−1 Kanamycin (kanamycin sulfate; Fisher). For selective dissolution of the cargos from the oil compartment of the fibers, ethanol (Reagent alcohol, BDH) was added to the fiber suspensions. The de-cross-linking agent, 160 mM sodium citrate (Na3C6H5O7, Sigma-Aldrich) in DI water was used as calcium chelator to degrade the alginate fiber or inner alginate particles.\nThe growth of bacterial cells, Escherichia coli (E. coli), in the oil droplet-in-alginate fibers (FIG. 2, panel d) was also tested. The E. coli cells encapsulated in the fibers were suspended in the LB medium for 21 hours, and grew well inside the fibers where they completely surrounded the oil droplets (FIG. 9). The oil microcompartments of the fiber can be used to encapsulate hydrophobic drugs or antibacterial chemicals to test their effects on the cells. For example, eugenol is an antibacterial compound found in clove oil. Eugenol was dissolved in the oil compartment, in a solution comprising mineral oil with 5% (v/v) undecanol and 2 wt % Span 80. […]"}, "[4]": {"experiment": "dissolution of eugenol droplets embedded in the fiber in water", "type": "physicochemical", "settings": "100% eugenol droplets", "description": "as §1\nThe previously described experiments were conducted with mineral oil as the oil phase."}}, "data": [{"compound": "CCN(CC)c1ccc2nc3c4ccccc4c(=O)cc-3oc2c1", "note": "[Nile Red]", "values": [{"measurement": "red fluorescence in the fibers", "setting": "[1]; ethanol/water solution, after a longer time", "value": "no further red fluorescence was observed in the fibers"}, {"measurement": "red fluorescence in the oil microcompartments", "setting": "[1]; fiber immersed over 18 hours in water", "value": "red fluorescence of the Nile Red dye in the oil microcompartments was observed"}]}, {"compound": "CCN(Cc1cccc(S(=O)(=O)[O-])c1)c1ccc(C(=C2C=CC(=[N+](CC)Cc3cccc(S(=O)(=O)[O-])c3)C=C2)c2ccccc2S(=O)(=O)[O-])cc1.[Na+].[Na+]", "note": "[erioglaucine]", "values": [{"measurement": "retention of dissolved compound in aqueous droplets", "setting": "[2]; PEG-DA (MW=250 g/mol) fiber with 4 vol % photoinitiator", "value": "remained within the aqueous compartments"}, {"measurement": "release of dye from fiber", "setting": "[2]; fiber precursor 76 vol % PEG250DA, 20 vol % PEG700DA, 4 vol % photoinitiator, immersed in water", "value": "allowed the blue dye to diffuse out of the fiber"}]}, {"compound": "C=CCc1ccc(O)c(OC)c1", "note": "[eugenol]", "values": [{"measurement": "growth of E. coli around the oil droplets", "setting": "[3]; 20% (v/v) eugenol droplets, after 3 hours", "value": "slowed down around the oil droplets"}, {"measurement": "growth of E. coli around the rim of the droplets", "setting": "[3]; 20% (v/v) eugenol droplets, after 15 hours", "value": "no growth was observed around the rim of the droplets"}, {"measurement": "cell population around the oil droplets", "setting": "[3]; 20% (v/v) eugenol-oil droplets", "value": "significant decrease in the cell population around the oil droplets"}, {"measurement": "cell growth around the eugenol droplets compared with oil droplets with no eugenol", "setting": "[3]; eugenol up to 10% (v/v) in oil droplets", "value": "no significant difference in the cell growth"}, {"measurement": "overall growth rate of E. coli inside the fiber", "setting": "[3]; eugenol up to 10% (v/v) in oil droplets, qualitative", "value": "reduction in the overall growth rate of E. coli"}, {"measurement": "growth of GFP-expressing E. coli in fiber", "setting": "[3]; up to 10% (v/v) eugenol droplets, after 15 hours", "value": "grew around the oil droplets and covered most of the fibers completely"}, {"measurement": "diameter of eugenol droplets embedded in the fiber after dissolution", "setting": "[4]; over a period of 2 hours", "value": 50, "unit": "μm"}, {"measurement": "diameter of eugenol droplets embedded in the fiber, initial", "setting": "[4]; start", "value": 120, "unit": "μm"}]}, {"compound": "fluorescein isothiocyanate (FITC) conjugated bovine serum albumin [FITC-conjugated BSA]", "values": [{"measurement": "time over which fluorescence of encapsulated cargo was observed", "setting": "[1]; in inner alginate particle, fiber stored in DI water", "value": "at least 20 hours"}]}]}
